Test results from publication PMC8699473, “An Easily Expandable Multi-Drug LC-MS Assay for the Simultaneous Quantification of 57 Oral Antitumor Drugs in Human Plasma” (Cancers, 2021).

Experiment: Long-term stability in spiked pooled human plasma

| Compound | Long-term stability, 1 month, -20°C Accuracy [%] (validation standard 2xLLOV) | Long-term stability, 1 month, -80°C Accuracy [%] (validation standard 2xLLOV) | Long-term stability, 2 month, -20°C Accuracy [%] (validation standard 2xLLOV) | Long-term stability, 2 month, -80°C Accuracy [%] (validation standard 2xLLOV) | Long-term stability, 3 month, -20°C Accuracy [%] (validation standard 2xLLOV) | Long-term stability, 3 month, -80°C Accuracy [%] (validation standard 2xLLOV) | Long-term stability, 1 month, -20°C Accuracy [%] (validation standard LLOV) | Long-term stability, 1 month, -80°C Accuracy [%] (validation standard LLOV) | Long-term stability, 2 month, -20°C Accuracy [%] (validation standard LLOV) | Long-term stability, 2 month, -80°C Accuracy [%] (validation standard LLOV) | Long-term stability, 3 month, -20°C Accuracy [%] (validation standard LLOV) | Long-term stability, 3 month, -80°C Accuracy [%] (validation standard LLOV) | Long-term stability, 1 month, -20°C Accuracy [%] (validation standard MOV) | Long-term stability, 1 month, -80°C Accuracy [%] (validation standard MOV) | Long-term stability, 2 month, -20°C Accuracy [%] (validation standard MOV) | Long-term stability, 2 month, -80°C Accuracy [%] (validation standard MOV) | Long-term stability, 3 month, -20°C Accuracy [%] (validation standard MOV) | Long-term stability, 3 month, -80°C Accuracy [%] (validation standard MOV) | Long-term stability, 1 month, -20°C Accuracy [%] (validation standard ULOV) | Long-term stability, 1 month, -80°C Accuracy [%] (validation standard ULOV) | further results |
| --- | --- | --- | --- | --- | --- | --- | --- | --- | --- | --- | --- | --- | --- | --- | --- | --- | --- | --- | --- | --- | --- |
| Cc1c(C(=O)Nc2ccc(N3C[C@@H](C)O[C@@H](C)C3)nc2)cccc1-c1ccc(OC(F)(F)F)cc1 [Sonidegib] | 106.2 | 108.9 | 111.0 | 107.0 | 96.1 | 104.6 | 109.9 | 108.6 | 105.8 | 104.4 | 103.1 | 109.9 | 104.9 | 108.0 | 114.5 | 119.3 | 95.1 | 99.2 | 106.5 | 105.4 | Long-term stability, 6 weeks, 4°C, without daylight Accuracy [%] (validation standard 2xLLOV): 91.2%; Long-term stability, 6 weeks, 4°C, without daylight Accuracy [%] (validation standard LLOV): 89.3%; Long-term stability, 6 weeks, 4°C, without daylight Accuracy [%] (validation standard MOV): 106.1%; Long-term stability, 2 month, -20°C Accuracy [%] (validation standard ULOV): 122.3%; Long-term stability, 2 month, -80°C Accuracy [%] (validation standard ULOV): 122.3%; Long-term stability, 3 month, -20°C Accuracy [%] (validation standard ULOV): 89.3%; Long-term stability, 3 month, -80°C Accuracy [%] (validation standard ULOV): 100.0%; Long-term stability, 6 weeks, 4°C, without daylight Accuracy [%] (validation standard ULOV): 100.7% |
| CNC(=O)c1cc(Oc2ccc(NC(=O)Nc3ccc(Cl)c(C(F)(F)F)c3)cc2)ccn1 [Sorafenib] | 103.7 | 110.1 | 109.9 | 106.2 | 94.5 | 108.7 | 106.1 | 102.7 | 109.0 | 106.5 | 100.5 | 111.4 | 106.1 | 108.3 | 112.2 | 118.4 | 94.0 | 100.4 | 104.5 | 103.5 | Long-term stability, 6 weeks, 4°C, without daylight Accuracy [%] (validation standard 2xLLOV): 74.5%; Long-term stability, 6 weeks, 4°C, without daylight Accuracy [%] (validation standard LLOV): 71.1%; Long-term stability, 6 weeks, 4°C, without daylight Accuracy [%] (validation standard MOV): 106.5%; Long-term stability, 2 month, -20°C Accuracy [%] (validation standard ULOV): 116.0%; Long-term stability, 2 month, -80°C Accuracy [%] (validation standard ULOV): 114.3%; Long-term stability, 3 month, -20°C Accuracy [%] (validation standard ULOV): 90.5%; Long-term stability, 3 month, -80°C Accuracy [%] (validation standard ULOV): 102.3%; Long-term stability, 6 weeks, 4°C, without daylight Accuracy [%] (validation standard ULOV): 99.7% |
| CCN(CC)CCNC(=O)c1c(C)[nH]c(/C=C2\C(=O)Nc3ccc(F)cc32)c1C [Sunitinib] | 121.2 | 108.5 | 108.9 | 108.9 | 123.9 | 131.1 | 132.8 | 122.7 | 114.3 | 112.8 | 130.7 | 135.5 | 118.5 | 107.0 | 106.3 | 102.8 | 123.6 | 120.9 | 119.5 | 109.0 | Long-term stability, 6 weeks, 4°C, without daylight Accuracy [%] (validation standard 2xLLOV): 85.9%; Long-term stability, 6 weeks, 4°C, without daylight Accuracy [%] (validation standard LLOV): 96.2%; Long-term stability, 6 weeks, 4°C, without daylight Accuracy [%] (validation standard MOV): 109.9%; Long-term stability, 2 month, -20°C Accuracy [%] (validation standard ULOV): 109.7%; Long-term stability, 2 month, -80°C Accuracy [%] (validation standard ULOV): 108.8%; Long-term stability, 3 month, -20°C Accuracy [%] (validation standard ULOV): 122.5%; Long-term stability, 3 month, -80°C Accuracy [%] (validation standard ULOV): 118.4%; Long-term stability, 6 weeks, 4°C, without daylight Accuracy [%] (validation standard ULOV): 105.4% |
| O=C1CCC(N2C(=O)c3ccccc3C2=O)C(=O)N1 (centres unmarked) [Thalidomide] | 75.6 | 74.9 | 58.1 | 79.7 | 50.7 | 79.8 | 71.4 | 76.7 | 57.5 | 72.7 | 43.9 | 76.7 | 66.7 | 73.1 | 57.0 | 77.9 | 50.8 | 75.0 | 68.6 | 66.3 | Long-term stability, 2 month, -20°C Accuracy [%] (validation standard ULOV): 42.5%; Long-term stability, 2 month, -80°C Accuracy [%] (validation standard ULOV): 79.5%; Long-term stability, 3 month, -20°C Accuracy [%] (validation standard ULOV): 33.5%; Long-term stability, 3 month, -80°C Accuracy [%] (validation standard ULOV): 78.0% |
| COc1cc2nccc(Oc3ccc(NC(=O)Nc4cc(C)on4)c(Cl)c3)c2cc1OC [Tivozanib] | 101.4 | 95.7 | 98.9 | 101.4 | 96.9 | 95.2 | 99.8 | 96.0 | 95.8 | 100.7 | 92.5 | 97.1 | 97.4 | 95.0 | 102.0 | 101.3 | 100.0 | 98.0 | 97.0 | 92.8 | Long-term stability, 6 weeks, 4°C, without daylight Accuracy [%] (validation standard 2xLLOV): 93.9%; Long-term stability, 6 weeks, 4°C, without daylight Accuracy [%] (validation standard LLOV): 86.9%; Long-term stability, 6 weeks, 4°C, without daylight Accuracy [%] (validation standard MOV): 107.6%; Long-term stability, 2 month, -20°C Accuracy [%] (validation standard ULOV): 100.9%; Long-term stability, 2 month, -80°C Accuracy [%] (validation standard ULOV): 100.3%; Long-term stability, 3 month, -20°C Accuracy [%] (validation standard ULOV): 96.3%; Long-term stability, 3 month, -80°C Accuracy [%] (validation standard ULOV): 96.2%; Long-term stability, 6 weeks, 4°C, without daylight Accuracy [%] (validation standard ULOV): 100.6% |
| CC(=O)Nc1cccc(-n2c(=O)n(C3CC3)c(=O)c3c(Nc4ccc(I)cc4F)n(C)c(=O)c(C)c32)c1 [Trametinib] | 105.1 | 110.9 | 123.9 | 104.2 | 105.5 | 103.8 | 111.6 | 101.9 | 111.6 | 103.4 | 96.6 | 104.8 | 105.2 | 107.1 | 116.1 | 117.6 | 102.9 | 102.5 | 103.2 | 99.6 | Long-term stability, 6 weeks, 4°C, without daylight Accuracy [%] (validation standard 2xLLOV): 97.4%; Long-term stability, 6 weeks, 4°C, without daylight Accuracy [%] (validation standard LLOV): 101.5%; Long-term stability, 6 weeks, 4°C, without daylight Accuracy [%] (validation standard MOV): 103.9%; Long-term stability, 2 month, -20°C Accuracy [%] (validation standard ULOV): 119.8%; Long-term stability, 2 month, -80°C Accuracy [%] (validation standard ULOV): 115.3%; Long-term stability, 3 month, -20°C Accuracy [%] (validation standard ULOV): 94.5%; Long-term stability, 3 month, -80°C Accuracy [%] (validation standard ULOV): 106.9%; Long-term stability, 6 weeks, 4°C, without daylight Accuracy [%] (validation standard ULOV): 94.7% |
